In patent US6743917B2, “Camptothecin analogs and methods of preparation thereof” (University of Pittsburgh, priority 1993, dated 2004):
Where two headings read alike, the source gives them in different places.

Key:
[1] = test system: HL-60 (human promyelocytic leukemic) cells; experiment: Cytotoxicity assay, HL-60 cells (XTT-microculture tetrazolium assay); type: cell-based; conditions: read-out: Inhibition of cancer cell growth IC50, HL-60
Experimental: The camptothecin derivatives were evaluated for their cytotoxic effects on the growth of HL-60 (human promyelocytic leukemic), 833K (human teratocarcinoma) and DC-3F (hamster lung) cells in vitro. The cells were cultured in an initial density of […]. They were maintained in a 5% CO2 humidified atmosphere at 37° C. in RPMI-1640 media (GIBCO-BRL Grand Island, N.Y.) containing penicillin 100 μ/ml)/streptomycin (100 ^μg/ml) (GIBCO-BRL) and 10% heat inactivated fetal bovine serum. The assay was performed in duplicate in 96-well microplates. The cytotoxicity of the compounds toward HL-60 cells following 72 hr incubation was determined by XTT-microculture tetrazolium assay. Scudiero, D. A., et al., Cancer Res., 48, 4827 (1988), the disclosure of which is incorporated herein by reference. 2′, 3′-bis(-methoxy-4-nitro-5-sulfheny)-5-[(phenylamino)carbonyl]-2H-tetrazolium hydroxide (XTT) was prepared at 1 mg/ml in prewarmed (37° C.) medium without serum. Phenazine methosulfate (PMS) and fresh XTT were mixed together to obtain 0.075 mM PMS-XTT solution (25 ^μl of the stock 5 mM PMS was added per 5 ml of 1 mg/ml XTT). Fifty ^μl of this mixture was added to each well of the cell culture at the end of 72 hr incubation. After incubation at 37° C. for 4 hr., absorbance at 450 nm and 630 nm was measured with a microplate reader (EL340, Bio-Tek Instruments, Inc., Winooski, Vt.).

[2] = test system: 833K (human teratocarcinoma) cells; experiment: Cytotoxicity assay, 833K cells (sulforhodamine B protein content); type: cell-based; conditions: read-out: Inhibition of cancer cell growth IC50, 833K
Experimental: (§1) Cultures were fixed with trichloroacetic acid and then stained for 30 minutes with 0.4% sulforhodamine B dissolved in 1% acetic acid. Unbound dye was removed by acetic acid washes, and the protein-bound dye was extracted with an unbuffered Tris base [tris(hydroxy-methyl)aminomethan] for determination of absorbance at 570 nm in a 96-well microplate reader. The experiments were carried out in duplicate using five to six concentrations of the drugs tested. Data were analyzed via computer software.

[3] = test system: DC-3F (hamster lung) cells; experiment: Cytotoxicity assay, DC-3F cells (sulforhodamine B protein content); type: cell-based; conditions: read-out: Inhibition of cancer cell growth IC50, DC-3F
Experimental: as §1

[4] = Equilibrium binding to DMPC small unilamellar vesicles (fluorescence anisotropy titration); conditions: PBS buffer at PH 7.4 and 37° C.
[5] = Equilibrium binding to DMPG small unilamellar vesicles (fluorescence anisotropy titration); conditions: PBS buffer at PH 7.4 and 37° C.
[6] = Kinetics of lactone ring opening in PBS buffer (HPLC); type: physicochemical; conditions: PBS
Experimental: Kinetics of Lactone Ring Opening. […] Mi and Burke (1994), supra.
FIG. 21 summarizes the stability of DB172 in phosphate buffered saline (PBS) buffer, pH 7.4, at physiological temperature. Shown in the figure are plots of lactone fraction as a function of time for DB172 at different concentrations. Drug was added to solution from a concentrated DMSO stock solution such that the volumes of DMSO were very small (less than 0.5%) relative to the volume of water. […] At the more dilute drug concentrations the drug hydrolyzes as previously observed for other camptothecins containing the ^α-hydroxy-^δ-lactone moiety.

[7] = Kinetics of lactone ring opening in whole human blood (HPLC); conditions: Whole Blood, physiological temperature;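 note: hydrolytic opening of the camptothecin lactone ring followed over time by quantitative C18 reversed-phase HPLC in human whole blood at physiological temperature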
[8] = Kinetics of lactone ring opening in PBS containing HSA (HPLC); conditions: HSA (PBS containing 30 mg/ml HSA)
[9] = Kinetics of lactone ring opening in RBC (HPLC); type: in vitro ADME, human; conditions: RBC
Description: Kinetics of Lactone Ring Opening. […] Mi and Burke (1994), supra. […] Louis, Mo.) was used.

[10] = Homo sapiens, HL-60 cells, 72 hr incubation, XTT
[11] = Homo sapiens, 833K cells, sulforhodamine B
[12] = Mesocricetus auratus, DC3F, DC-3F cells, sulforhodamine B
[13] = HL-60 cells, 72 hr incubation, XTT

| Molecule | IC50 [1, 10] [nM] | IC50 [2, 11] [nM] | IC50 [3, 12] [nM] | KDMPC overall association constant [4] [M⁻¹] | KDMPG overall association constant [5] [M⁻¹] | further results |
| --- | --- | --- | --- | --- | --- | --- |
| CCC1(O)C(=O)OCc2c1cc1n(c2=O)Cc2c-1nc1ccccc1c2[Si](c1ccccc1)(c1ccccc1)C(C)(C)C (stereo in doubt) [Example 3, (20S)-7-tert-butyldiphenylsilylcamptothecin] | 339 | 243 | 663 |  |  |  |
| CCC1(O)C(=O)OCc2c1cc1n(c2=O)Cc2c-1nc1ccc(OC(C)=O)cc1c2[Si](C)(C)C (stereo in doubt) [Example 4, (20S)-10-acetoxy-7-trimethylsilylcamptothecin] | 2.7 |  | 6.7 |  |  |  |
| CCC1(O)C(=O)OCc2c1cc1n(c2=O)Cc2c-1nc1ccc(O)cc1c2[Si](C)(C)C (stereo in doubt) [Example 5, (20S)-10-hydroxy-7-trimethylsilylcamptothecin] | 2.6 | 7 | 6.9 |  |  |  |
| CCC1(O)C(=O)OCc2c1cc1n(c2=O)Cc2c-1nc1ccc(OC(=O)N3CCC(N4CCCCC4)CC3)cc1c2[Si](C)(C)C (stereo in doubt) [Example 6, (20S) 7-trimethylsilyl-irinotecan] |  |  |  |  |  | IC50 ([1]; Homo sapiens, HL-60, 72 h): 66 nM; IC50 ([2]; Homo sapiens, 833K): 214 nM; IC50 ([3]; Mesocricetus auratus, DC3F): 256 nM |
| CCC1(O)C(=O)OCc2c1cc1n(c2=O)Cc2c-1nc1cc(N)ccc1c2[Si](C)(C)C (stereo in doubt) [Example 9, (20S)-11-amino-7-trimethylsilylcamptothecin] | 2.6 | 7.4 | 6.4 |  |  |  |
| CCC1(O)C(=O)OCc2c1cc1n(c2=O)Cc2c-1nc1cc(F)c(N)cc1c2[Si](C)(C)C (stereo in doubt) [Example 10, (20S)-11-fluoro-10-amino-7-trimethylsilylcamptothecin] | 0.07 | 0.14 | 0.29 |  |  |  |
| CCCCc1c2c(nc3ccc(O)cc13)-c1cc3c(c(=O)n1C2)COC(=O)C3(O)CC (stereo not drawn) [7-butyl-10-hydroxycamptothecin] |  |  |  | 2100 | 1270 |  |
| CCc1c2c(nc3ccc(OC)cc13)-c1cc3c(c(=O)n1C2)COC(=O)C3(O)CC (stereo not drawn) [7-ethyl-10-methoxycamptothecin] |  |  |  | 340 | 330 |  |
| CCc1c2c(nc3ccccc13)-c1cc3c(c(=O)n1C2)COC(=O)[C@]3(O)CC [7-ethyl-20(S)-camptothecin] |  |  |  | 250 | 300 |  |
| CCC1(O)C(=O)OCc2c1cc1n(c2=O)Cc2c-1nc1ccc(O)cc1c2C (stereo not drawn) [7-methyl-10-hydroxycamptothecin] |  |  |  | 220 | 90 |  |
| CCC1(O)C(=O)OCc2c1cc1n(c2=O)Cc2c-1nc1ccc(OC)cc1c2C (stereo not drawn) [7-methyl-10-methoxycamptothecin] |  |  |  | 220 | 200 |  |
| CC[C@@]1(O)C(=O)OCc2c1cc1n(c2=O)Cc2c-1nc1ccccc1c2C [7-methyl-20(S)-camptothecin] |  |  |  | 150 | 180 |  |
| CCCc1c2c(nc3ccc(O)cc13)-c1cc3c(c(=O)n1C2)COC(=O)C3(O)CC (stereo not drawn) [7-propyl-10-hydroxycamptothecin] |  |  |  | 550 | 250 |  |
| CCCc1c2c(nc3ccc(OC)cc13)-c1cc3c(c(=O)n1C2)COC(=O)C3(O)CC (stereo not drawn) [7-propyl-10-methoxycamptothecin] |  |  |  | 440 | 570 |  |
| CCCc1c2c(nc3ccccc13)-c1cc3c(c(=O)n1C2)COC(=O)[C@]3(O)CC [7-propyl-20(S)-camptothecin] |  |  |  | 540 | 600 |  |
| CC[C@@]1(O)C(=O)OCc2c1cc1n(c2=O)Cc2c-1nc1ccc(O)cc1c2[Si](C)(C)CCCN(C)C.Cl [DB-124, 10-hydroxy-7-(3-dimethylaminopropyldimethylsilyl) camptothecin hydrochloride salt] |  |  |  |  |  | % Lactone at Equilibrium [6]: 8.9 +/− 0.3%; % Lactone at Equilibrium [7]: 31.8 +/− 0.8%; t1/2 [7]: 63.1 ± 7.4 min; % Lactone at Equilibrium [8]: 12.2 +/− 0.3%; t1/2 [8]: 40.0 ± 0.3 min |
| CC[C@@]1(O)C(=O)OCc2c1cc1n(c2=O)Cc2c-1nc1ccccc1c2[Si](C)(C)CCCCl [DB-148, (20S)-7-(3-chloropropyldimethylsilyl)camptothecin] |  |  |  |  |  | % Lactone at Equilibrium [6]: 12.0 +/− 0.5%; % Lactone at Equilibrium [9]: 43.4 +/− 0.8%; t1/2 [9]: 59.7 ± 2.9 min; % Lactone at Equilibrium [7]: 2.2 +/− 3.6%; t1/2 [7]: 85.6 ± 9.2 min; % Lactone at Equilibrium [8]: 2.7 +/− 0.2%; t1/2 [8]: 16.0 ± 0.2 min |
| CC[C@@]1(O)C(=O)OCc2c1cc1n(c2=O)Cc2c-1nc1ccccc1c2[Si](C(C)C)(C(C)C)C(C)C [Example 12, 20S-7-triisopropylsilylcamptothecin] | 1510 | 10700 | 1040 |  |  |  |
| CC[C@@]1(O)C(=O)OCc2c1cc1n(c2=O)Cc2c-1nc1ccccc1c2[Si](CC)(CC)CC [Example 13, (20S)-7-Triethylsilylcamptothecin] | 31.9 | 122 | 57.1 |  |  |  |
| CC[C@@]1(O)C(=O)OCc2c1cc1n(c2=O)Cc2c-1nc1ccccc1c2[Si](C)(C)CC1CCC2CC1C2(C)C (stereo partly drawn) [Example 14, (20S)-7-(dimethyl-(1′S,2′S,5′S) 7,7 dimethylnorpinylsilyl)camptothecin] | 66.9 | 197 | 64.1 |  |  |  |
| CC[C@@]1(O)C(=O)OCc2c1cc1n(c2=O)Cc2c-1nc1ccccc1c2[Si](C)(C)CCCC#N [Example 15, (20S)-7-(3-cyanopropyldimethylsilyl)camptothecin] | 0.91 | 2.7 | 2.7 |  |  |  |
| CC[C@@]1(O)C(=O)OCc2c1cc1n(c2=O)Cc2c-1nc1ccccc1c2[Si](C)(C)CCCCl [Example 16, (20S)-7-(3-halopropyldimethylsilyl) camptothecin] | 2.1 | 5.4 | 2.3 |  |  |  |
| CC[C@@]1(O)C(=O)OCc2c1cc1n(c2=O)Cc2c-1nc1ccc(OC(C)=O)cc1c2[Si](C)(C)C(C)(C)C [Example 17, (20S)10-acetoxy-7-tert-butyldimethylsilylcamptothecin] | 1.86 |  | 3.57 |  |  |  |
| CC[C@@]1(O)C(=O)OCc2c1cc1n(c2=O)Cc2c-1nc1ccc(OC(C)=O)cc1c2[Si](C)(C)C(C)(C)C [Example 18, (20S)10-Acetoxy-7-tert-butyldimethylsilylcamptothecin] |  |  |  |  |  | IC50 [1, 13]: 2.6 nM; IC50 ([3]; DC-3F cells, sulforhodamine B): 5.2 nM |
| (20S)-11,12-difluoro-7-trimethylsilylcamptothecin and (20S)-9,10-difluoro-7-trimethylsilylcamptothecin [Example 11] |  |  |  |  |  | IC50 [1, 13]: 1.01 nM; IC50 ([2]; 833K cells, sulforhodamine B): 2.1 nM; IC50 ([3]; DC-3F cells, sulforhodamine B): 2.5 nM |
